Values joined by “and” are separate entries in the source; they are usually repeats but may differ in a detail not shown here. Equal entries are not always repeated. Where two headings read alike, the source gives them in different places. Some results are limits rather than exact numbers.

The text below walks through data of article PMC10582325 (Frontiers in Pharmacology, 2023).

Data set [1] in a line: Plasma concentration 3 h post dose in murine model of tuberculosis. The format is in vivo, BALB/c mice infected with M. tuberculosis H37Rv. As to conditions: TB model; for plasma concentration after coadministration as percent of BDQ alone: 3 h post dose, p < 0.05; for concentration at 3 h: female, BALB/c, mouse, plasma, read-out: Mean plasma concentration at three hours after oral administration.

For data set [2], the system named is phospholipidosis. As to conditions: cited from earlier work.
Data set [3] is described as follows: Lung and spleen tissue exposure in BALB/c mice.
The nature of data set [4]: Stability of BDQ, M2 and TBI-166 in mice plasma (LC-MS/MS validation).
Data set [5] can be described thus: Steady-state plasma pharmacokinetics of BDQ, M2 and TBI-166 in BALB/c mice. As to conditions: for AUC(0-t): Plasma; for t 1/2: after last dose.
Data set [6] deals with CYP3A4/5. As to conditions: cited from earlier work.
Data set [7] concerns the target T1, rCYP2A6 (Homo sapiens, UniProt P11509).
T1 construct: purchased BD Gentest (Woburn, MA, United States)
T1 sequence (P11509 1-494): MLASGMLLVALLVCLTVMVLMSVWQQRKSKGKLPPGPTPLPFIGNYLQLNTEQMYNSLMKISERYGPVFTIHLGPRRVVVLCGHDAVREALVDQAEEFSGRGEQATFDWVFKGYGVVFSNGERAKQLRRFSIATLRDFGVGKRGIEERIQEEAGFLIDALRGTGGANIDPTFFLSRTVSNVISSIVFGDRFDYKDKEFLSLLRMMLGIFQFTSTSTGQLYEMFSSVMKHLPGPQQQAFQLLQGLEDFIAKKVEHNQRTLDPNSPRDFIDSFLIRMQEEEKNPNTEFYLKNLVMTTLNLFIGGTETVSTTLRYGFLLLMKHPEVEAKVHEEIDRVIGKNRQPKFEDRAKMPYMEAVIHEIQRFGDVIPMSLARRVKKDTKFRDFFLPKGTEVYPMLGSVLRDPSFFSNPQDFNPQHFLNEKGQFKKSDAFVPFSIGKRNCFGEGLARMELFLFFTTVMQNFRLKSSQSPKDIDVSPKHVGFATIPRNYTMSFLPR
Nature of the data set: Reaction phenotyping of BDQ in recombinant P450 enzymes (rCYPs method). As to conditions: BDQ 1 μM, M2 formation, CYP2A6. The data set is classed as in vitro ADME.

Data set [8] addresses T2, rCYP2C8 (Homo sapiens, UniProt P10632).
T2 construct: purchased BD Gentest (Woburn, MA, United States)
T2 sequence (P10632 1-490): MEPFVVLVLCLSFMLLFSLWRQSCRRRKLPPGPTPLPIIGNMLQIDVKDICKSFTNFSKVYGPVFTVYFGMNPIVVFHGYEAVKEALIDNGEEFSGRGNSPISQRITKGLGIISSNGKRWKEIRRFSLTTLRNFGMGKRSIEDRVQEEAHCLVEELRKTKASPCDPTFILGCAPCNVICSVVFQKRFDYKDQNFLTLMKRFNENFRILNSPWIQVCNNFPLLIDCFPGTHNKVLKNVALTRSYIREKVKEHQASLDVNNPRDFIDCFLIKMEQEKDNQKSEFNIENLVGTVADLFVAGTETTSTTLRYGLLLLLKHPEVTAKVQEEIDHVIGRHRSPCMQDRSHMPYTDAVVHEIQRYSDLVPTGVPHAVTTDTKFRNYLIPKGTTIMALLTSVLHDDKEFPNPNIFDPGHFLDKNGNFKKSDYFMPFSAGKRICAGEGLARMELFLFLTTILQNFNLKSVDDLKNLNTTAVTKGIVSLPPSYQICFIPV
The description is as above. The data set is classed as in vitro ADME. Conditions: BDQ 1 μM, CYP2C8.

Data set [9] deals with T3, rCYP2C19 (Homo sapiens, UniProt P33261).
T3 construct: purchased BD Gentest (Woburn, MA, United States)
The data set is described as above. The format is in vitro ADME. As to conditions: BDQ 1 μM, CYP2C19.

For data set [10], the target named is T4, rCYP3A4 (Homo sapiens, UniProt P08684).
T4 construct: purchased BD Gentest (Woburn, MA, United States)
The description is as above. The data set is classed as in vitro ADME. Conditions: BDQ 1 μM, CYP3A4.

For data set [11], the target named is T5, rCYP3A5 (Homo sapiens, UniProt P20815).
T5 construct: purchased BD Gentest (Woburn, MA, United States)
The description is as above. Conditions: BDQ 1 μM, CYP3A5. The format is in vitro ADME.

The conditions of data set [12]: male, BALB/c, mouse, in vivo.
The conditions of data set [13]: mouse, in vivo.
Data set [14] can be described thus: in vivo. Conditions: male, BALB/c, mouse, tissue-to-plasma ratio (Kp).
Setting [15] is: TBI-166 group (20 mg/kg), W4, LLOQ 5, 5, 15 ng/mL for BDQ, TBI-166, M2.
The mark [16] stands for this setting: TBI-166 group (20 mg/kg), W8, LLOQ 5, 5, 15 ng/mL for BDQ, TBI-166, M2.

T4 sequence (P08684 whole entry): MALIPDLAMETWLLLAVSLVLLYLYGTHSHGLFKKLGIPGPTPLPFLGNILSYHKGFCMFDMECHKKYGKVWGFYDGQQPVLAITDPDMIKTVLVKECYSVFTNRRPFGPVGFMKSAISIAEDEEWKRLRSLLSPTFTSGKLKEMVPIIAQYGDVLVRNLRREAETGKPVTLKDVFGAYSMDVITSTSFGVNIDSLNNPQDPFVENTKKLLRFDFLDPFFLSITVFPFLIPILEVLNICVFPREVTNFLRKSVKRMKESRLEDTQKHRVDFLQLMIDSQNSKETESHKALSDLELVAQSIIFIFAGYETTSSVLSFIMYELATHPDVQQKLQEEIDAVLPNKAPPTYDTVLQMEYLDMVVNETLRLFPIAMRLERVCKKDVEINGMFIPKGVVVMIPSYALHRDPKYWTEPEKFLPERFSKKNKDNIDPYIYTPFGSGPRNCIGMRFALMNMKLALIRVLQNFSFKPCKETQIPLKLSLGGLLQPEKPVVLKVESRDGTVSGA
T5 sequence (P20815 whole entry): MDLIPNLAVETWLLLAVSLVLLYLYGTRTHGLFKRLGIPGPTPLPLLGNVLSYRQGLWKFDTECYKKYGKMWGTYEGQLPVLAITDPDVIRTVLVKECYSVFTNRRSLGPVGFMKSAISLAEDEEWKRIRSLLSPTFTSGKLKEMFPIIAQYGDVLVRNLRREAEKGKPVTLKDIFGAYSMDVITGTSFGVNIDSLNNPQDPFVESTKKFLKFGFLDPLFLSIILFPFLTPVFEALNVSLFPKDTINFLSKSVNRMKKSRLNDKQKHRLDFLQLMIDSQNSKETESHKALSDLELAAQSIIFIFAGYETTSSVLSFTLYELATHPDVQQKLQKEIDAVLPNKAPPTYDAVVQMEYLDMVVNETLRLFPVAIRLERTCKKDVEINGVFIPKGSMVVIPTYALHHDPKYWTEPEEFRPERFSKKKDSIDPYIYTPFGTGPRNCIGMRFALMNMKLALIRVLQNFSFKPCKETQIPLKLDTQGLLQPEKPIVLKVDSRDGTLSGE
T3 sequence (P33261 whole entry): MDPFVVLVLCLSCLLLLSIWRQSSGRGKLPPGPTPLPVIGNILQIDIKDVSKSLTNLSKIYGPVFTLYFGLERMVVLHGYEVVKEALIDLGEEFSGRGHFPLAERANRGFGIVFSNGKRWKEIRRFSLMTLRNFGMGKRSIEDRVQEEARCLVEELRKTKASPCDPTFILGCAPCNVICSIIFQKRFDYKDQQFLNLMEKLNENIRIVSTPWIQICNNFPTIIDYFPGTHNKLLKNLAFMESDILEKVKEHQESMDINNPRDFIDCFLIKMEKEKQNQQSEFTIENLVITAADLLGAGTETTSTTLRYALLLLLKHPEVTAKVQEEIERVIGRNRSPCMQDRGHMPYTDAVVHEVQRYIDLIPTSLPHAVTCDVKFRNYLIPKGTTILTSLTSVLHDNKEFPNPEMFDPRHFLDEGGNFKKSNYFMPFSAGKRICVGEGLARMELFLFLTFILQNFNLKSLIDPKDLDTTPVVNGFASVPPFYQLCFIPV

Take `CNCC[C@@](O)(c1cccc2ccccc12)[C@H](c1ccccc1)c1cc2cc(Br)ccc2nc1OC` [M2, N-desmethyl-bedaquiline]: the “plasma concentration after coadministration as percent of BDQ alone” value in [1] (4 weeks) was 87%; in data set [1] (8 weeks), 79%. The “Mean plasma concentration at three hours after oral administration” value was 970 ng/mL and 969.68 ± 206.81 ng/mL in data set [1] (BDQ + TBI-166 group, W4); 948 ng/mL and 948.31 ± 60.21 ng/mL in data set [1] (BDQ + TBI-166 group, W8); “<LLOQ” in data set [1] (setting [15]); “<LLOQ” in data set [1] (setting [16]). For the same compound, the “higher cardiotoxicity by inducing phospholipidosis compared with BDQ” value in data set [2] is recorded as 50 times. The “AUC(0-t)” value in [3] (Lung, BDQ + TBI-166 group) was 4940.02 ± 756.58 µg·h/g; in data set [3] (Lung, BDQ group) it was 4827.39 ± 818.42 µg·h/g; in [3] (Spleen, BDQ + TBI-166 group) it was 6358.44 ± 1054.47 µg·h/g; in data set [3] (Spleen, BDQ group) it was 4703.39 ± 1052.83 µg·h/g; in data set [5] (BDQ + TBI-166 group (Table S4)) it was 76250 ± 8100 ng·h/mL; in [5] (BDQ group (Table S4)), 115730 ± 25440 ng·h/mL. The “tissue-to-plasma ratio (Kp)” value is on record as 64.79 in data set [3] (Lung, BDQ + TBI-166 group); 41.72 in [3] (Lung, BDQ group); 83.39 in data set [3] (Spleen, BDQ + TBI-166 group); 40.65 in data set [3] (Spleen, BDQ group). Also, the “exposure (AUC0-t) with vs without coadministration” value in [3] (lungs) was “similar”. Moreover, the “increase of exposure (AUC0-t) after coadministration of BDQ with TBI-166” value in [3] (spleens) worked out at 1.5 fold. For the same compound, the “Stability in mice plasma, RE” value in [4] (4℃ for 24 h, 45 ng/mL) is on record as 5.42%; in data set [4] (4℃ for 24 h, 225 ng/mL) it was 13.08%; in data set [4] (4℃ for 24 h, 2250 ng/mL) it was 9.97%; in [4] (-40℃ for 7 d, 45 ng/mL), 15.73%; in data set [4] (-40℃ for 7 d, 225 ng/mL) it was 2.77%; in data set [4] (-40℃ for 7 d, 2250 ng/mL), 9.33%. Besides, the “Stability in mice plasma, RE” value in [4] (Freeze-thaw three cycles, 45 ng/mL) was 12.58%; in data set [4] (Freeze-thaw three cycles, 225 ng/mL) it was 17.75%; in data set [4] (Freeze-thaw three cycles, 2250 ng/mL), 6.90%; in [4] (In auto-sample for 24 h, 45 ng/mL), 14.04%; in data set [4] (In auto-sample for 24 h, 225 ng/mL), 17.58%; in [4] (In auto-sample for 24 h, 2250 ng/mL) it was 4.83%. Further, the “Stability in mice plasma, RE” value is given as 9.38% in [4] (Room temperature for 24 h, 45 ng/mL); 17.30% in [4] (Room temperature for 24 h, 225 ng/mL); 4.03% in data set [4] (Room temperature for 24 h, 2250 ng/mL). The “mean plasma concentration in BDQ + TBI-166 group as percent of BDQ group” value in data set [5] (1 h post dose) was 85%; in data set [5] (3 h post dose) it was 75%. In addition, the mean plasma concentration is 1,438 ng/mL in data set [5] (1 h post dose (so in the source), BDQ group); 1,235.36 ng/mL in data set [5] (1 h post dose, BDQ + TBI-166 group); 1,084.84 ng/mL in [5] (3 h post dose, BDQ + TBI-166 group); 1,438.31 ng/mL in data set [5] (3 h post dose, BDQ group). Also, the “area under the curve ratio (AUCR)” value in data set [5] (BDQ + TBI-166 group vs BDQ group) is 0.66. The “AUC(0-last)” value is 76,310 ± 5,901 h·ng/mL in [5] (plasma, BDQ + TBI-166 group) and 115,704 ± 19,589 h·ng/mL in data set [5] (plasma, BDQ group (BDQ alone)). Also, the “AUC(0-last) as percent of single-drug group” value stood at 66% in [5] (plasma, BDQ + TBI-166 group) and 100% in data set [5] (plasma, BDQ group (reference)). Moreover, the “AUC(0-∞)” value in data set [5] (plasma, BDQ + TBI-166 group) is 89,814 h·ng/mL; in data set [5] (plasma, BDQ group (BDQ alone)), 134,430 h·ng/mL. Also, the C max in data set [5] (plasma, BDQ + TBI-166 group) is listed as 1,235.36 ± 22.74 ng/mL; in data set [5] (plasma, BDQ group (BDQ alone)) it was 1,438.31 ± 127.21 ng/mL. The “MRT(0-t)” value is recorded as 51.71 h in [5] (plasma, BDQ + TBI-166 group) and 56.46 h in data set [5] (plasma, BDQ group (BDQ alone)). Moreover, the T max in [5] (plasma, BDQ + TBI-166 group) is given as 1 h; in [5] (plasma, BDQ group (BDQ alone)), 3 h. For the same compound, the “t 1/2” value in data set [5] (plasma, BDQ + TBI-166 group (BDQ 25 mg/kg + TBI-166 20 mg/kg, gavage QD 21 days)) stood at 57.47 h; in data set [5] (plasma, BDQ group (BDQ 25 mg/kg alone, gavage QD 21 days)), 64.27 h. For the same compound, the “decrease of AUC0-last after coadministration of BDQ with TBI-166” value in data set [5] (plasma, vs BDQ group) turned out to be 34%.

`CC(C)/N=c1\cc2n(-c3ccc(Cl)cc3)c3ccccc3nc-2cc1Nc1ccc(Cl)cc1` [clofazimine]: in [6], the CYP3A4/5 inhibitor strength entry is on record as “moderate-to-strong”.

For `COc1nc2ccc(Br)cc2cc1[C@@H](c1ccccc1)[C@@](O)(CCN(C)C)c1cccc2ccccc12` [BDQ, Bedaquiline], the “f m (fraction of drug metabolism by individual CYP enzyme)” value was determined as 3.1% in data set [7]; 8.8% in [8]; 5.7% in data set [9]; 73.1% in [10]; 3.5% in data set [11]. Further, the “Mean plasma concentration at three hours after oral administration” value in [1] (setting [15]) and in data set [1] (setting [16]) was “<LLOQ” in each case. In addition, the concentration at 3 h in [1] (oral, 25 mg/kg, BDQ group (25 mg/kg), W4, LLOQ 5, 5, 15 ng/mL for BDQ, TBI-166, M2) came out at 657 ± 142 ng/mL; in [1] (oral, 25 mg/kg, BDQ group (25 mg/kg), W8, LLOQ 5, 5, 15 ng/mL for BDQ, TBI-166, M2) it was 920 ± 126 ng/mL; in [1] (po, BDQ + TBI-166 group, W4), 647 ± 199 ng/mL; in data set [1] (po, BDQ + TBI-166 group, W8), 889 ± 171 ng/mL. Also, the “AUC(0-last) as percent of single-drug group” value in [12] is 100%. Moreover, the “MRT(0-t)” value in data set [12] (po, 25 mg/kg) is given as 52.80 h. The “exposure (AUC0-t) with vs without coadministration” value in data set [13] is on record as “similar”. Further, the Kp (in general, the ratio of the level in a tissue or fluid to that in plasma or blood) in [14] came out at 19.7.
